{
  "source": "paper PMC5814047",
  "about": "“Peptidic inhibitors of insulin-degrading enzyme with potential for dermatological applications discovered via phage display” (PLoS ONE, 2018)",
  "key": {"[1]": {"tested_on": "multiple peptidases of different protease classes", "experiment": "Activity on additional proteases, FAßB degradation assay", "assay_type": "biochemical", "set-up": "concentration or dose not given beside the values", "details": "for % activity relative to DMSO-only and no-enzyme controls, Mean: N 8; for % activity relative to DMSO-only and no-enzyme controls, single runs: each run mean of quadruplicates", "protocol": "(§1) IDE activity was quantified by monitoring the degradation of Mca-[…](Dnp) (FRET1, 5 μM), fluoresceinated and biotinylated amyloid ß-protein (FAßB; 500 nM) or recombinant human insulin (50 nM) in PBS supplemented with 0.05% BSA. FRET1 degradation was measured by changes in fluorescence (λex = 340 nm, λem = 420 nm); FAßB degradation was monitored by fluorescence polarization (λex = 488 nm, λem = 525 nm), as described; and insulin degradation was quantified by ELISA. In vitro activity assays incorporated recombinant human IDE (1 nM) purified from bacteria. For quantitation of insulin degradation in primary murine skin fibroblasts, cells (1 x 10^5/well) were plated in 96-well plates and maintained in DMEM supplemented with 10% fetal bovine serum (FBS), 2mM glutamine, penicillin and streptomycin. After addition of insulin (10 nM or 100 nM), samples of conditioned medium were removed daily and quickly frozen, then insulin levels were quantified in parallel by ELISA according to manufacturer’s recommendations (Crystal Chem, Downers Grove, IL, USA). Assessment of the activity of P12-3A against a variety of matrix-metalloproteases was conducted using the Matrix Metalloproteinase (MMP) Inhibitor Profiling Kit, Fluorometric RED (Enzo Life Sciences, Inc., Farmingdale, NY, USA) according to manufacturer’s recommendations using the broad-spectrum MMP inhibitor, NNGH, as a positive control.\n(§2) Supplementary file pone.0193101.s004.tif: S4 Fig Selectivity of P12-3A for IDE vis-à-vis other proteases. Activity of P12-3A (100 μM) against (A) multiple matrix-metalloproteases (MMPs) and (B) multiple peptidases of different protease classes. […] Data are mean ± SD, n = 8–16 per group. P<0.05 by 2-tailed Student’s t-test. […] See Materials and Methods for details. NEP, neprilysin; mCatD, murine cathepsin D; hCatD, human cathepsin D. (TIF) Click here for additional data file."}, "[2]": {"tested_on": "hydroxyproline secreted by primary murine skin fibroblasts", "experiment": "Hydroxyproline secretion into medium", "assay_type": "cell-based", "protocol": "Insulin promotes wound healing and overall skin health by affecting a number of processes, including cell proliferation, cell migration, and the production and secretion of ECM components, particularly type I collagen. We therefore assessed the ability of P12-3A to influence these processes in cultured skin fibroblasts and keratinocytes. To that end, primary mouse skin fibroblasts were grown for 4 d in multiple concentrations of insulin in the presence or absence of P12-3A, and insulin concentration over time was monitored by ELISA. […] Finally, the effects of P12-3A on collagen production in were assessed at both the transcriptional and the posttranslational level in confluent monolayers of fibroblasts. After 4 d of treatment with P12-3A (100 μM), mRNA levels for the major form of collagen, alpha-1 type I collagen (COL1A1), were quantified by RT-PCR and found to be increased to ~2.6 times the levels of untreated cells (Fig 4C). To assess overall levels of collagen production and secretion, we quantified levels of hydroxyproline, a modified amino acid present almost exclusively in collagen proteins. […] Western blotting also confirmed that mature, cell-associated collagen levels were increased in the presence of P12-3A (Fig 4E).\nFig 4 Effects of P12-3A on cultured skin cells. A, Insulin concentrations as a function of time in logarithmically growing primary murine skin fibroblasts in the absence or presence of P12-3A (100 μM). […] Data are mean ± SEM of 4 independent replications. *P<0.05, **P<0.01. B, Proliferation of cells in the absence or presence of P12-3A (100 μM). Data are mean ± SEM of 6 independent replications. […] C,D,E, P12-3A (100 μM) potentiates insulin-induced collagen production in skin fibroblasts. Collagen production was assessed by COL1A1 mRNA levels (C), levels of hydroxyproline secreted into the medium (D), and cell-associated mature alpha-1 type I collagen levels detected by Western blotting (E). Data are mean ± SD of 4 independent replications. *P<0.05, **P<0.01. […] Migration of HaCaT cells 48 h after induction of a scratch wound in the presence of the indicated quantities of insulin and/or P12-3A (100 μM). Data are mean ± SEM of 6 independent replications. *P<0.05, **P<0.01.\nFor quantitation of hydroxyproline secretion by primary murine skin fibroblasts, cells (1 x 10^5/well) were plated in 24-well plates DMEM supplemented with 10% FBS, 2mM glutamine, penicillin, streptomycin and 100 nM insulin, in the absence or presence of 100 μM P12-3A. After incubation for 4 days, the conditioned medium was removed, centrifuged at 1000 x g for 10 min to remove cellular debris, and hydroxyproline levels were quantified using the Hydroxyproline Assay Kit according to manufacturer’s recommendations (Sigma-Aldrich, St. Louis, MO, USA)."}, "15 different proteases": {"tested_on": "15 different proteases", "experiment": "Selectivity against 15 different proteases (S4 Fig)", "assay_type": "biochemical", "details": "P12-3A 100 μM", "protocol": "Taken together with the potency of all peptides against insulin (Table 1), we concluded that P12-3A represented the best inhibitor for further studies, and a highly purified, deliberately cyclized version (Fig 3A) was synthesized. […] Based on its potency, stability and selectivity for IDE, P12-3A was selected for use in downstream assays.\nas §1, with “Assessment of the activity of P12-3A against a variety of matrix-metalloproteases was conducted using the Matrix Metalloproteinase (MMP) Inhibitor Profiling Kit, Fluorometric RED (Enzo Life Sciences, Inc., Farmingdale, NY, USA) according to manufacturer’s recommendations using the broad-spectrum MMP inhibitor, NNGH, as a positive control.” left out"}, "[3]": {"tested_on": "multiple matrix-metalloproteases (MMPs)", "experiment": "Matrix Metalloproteinase (MMP) Inhibitor Profiling Kit, Fluorometric RED", "assay_type": "biochemical", "set-up": "% activity relative to DMSO-only controls, single runs / % activity relative to DMSO-only controls, Mean: concentration or dose not given beside the values", "details": "for % activity relative to DMSO-only controls, single runs: each run mean of duplicates", "protocol": "as §1, §2"}},
  "note": "Several values for one entry are separate records, joined by “and”; a condition that tells them apart may be missing. Identical values can stand only once. Bridge positions count the residues as written; N and C are the ends. Peptide text beside a SMILES is read from it.",
  "data": [
    {"molecule": "CC(C)C[C@H](NC(=O)[C@H](CO)NC(=O)[C@@H](N)CCC(N)=O)C(=O)N1CCC[C@H]1C(=O)N[C@@H](Cc1c[nH]c2ccccc12)C(=O)N[C@H]1CSSC[C@@H](C(=O)N[C@H](C(=O)N[C@H](C(N)=O)[C@@H](C)O)C(C)C)NC(=O)[C@H](Cc2c[nH]cn2)NC(=O)[C@@H]2CCCN2C(=O)[C@H](Cc2ccc(O)cc2)NC1=O", "note": "[P12-3A] (H-QSLPWCYPHCVT-NH2; disulfide 6-10 (inferred))", "values": [
      {"measurement": "% activity relative to DMSO-only and no-enzyme controls, Mean", "setting": "[1]; Plasmin", "value": 102.2, "unit": "%"},
      {"measurement": "% activity relative to DMSO-only and no-enzyme controls, single runs", "setting": "[1]; Plasmin", "value": "81.4012% and 90.4633% and 101.45% and 148.471% and 93.7572% and 91.0067% and 95.3568% and 115.381%"},
      {"measurement": "% activity relative to DMSO-only and no-enzyme controls, Mean", "setting": "[1]; Trypsin", "value": 97.0, "unit": "%"},
      {"measurement": "% activity relative to DMSO-only and no-enzyme controls, single runs", "setting": "[1]; Trypsin", "value": "89.0897% and 97.7425% and 98.0394% and 101.611% and 90.6127% and 100.837% and 98.0681% and 99.896%"},
      {"measurement": "hydroxyproline levels secreted into the medium", "setting": "[2]; 100 μM P12-3A, 100 nM insulin, 4 days", "value": "~ 4.6 times that secreted by untreated cells"},
      {"measurement": "Hydroxyproline, Mean", "setting": "[2]; from standard curve, N 4", "value": 0.989, "unit": "ug/well"},
      {"measurement": "Hydroxyproline", "setting": "[2]; from standard curve, individual replicates", "value": "0.7793 ug/well and 1.026 ug/well and 0.6312 ug/well and 1.309 ug/well"},
      {"measurement": "Hydroxyproline, Normalized, Mean", "setting": "[2]; normalized to control mean (1.000), N 4", "value": 4.585},
      {"measurement": "Hydroxyproline, Normalized", "setting": "[2]; normalized to control mean (1.000), individual replicates", "value": "3.613 and 4.758 and 2.926 and 6.069"},
      {"measurement": "Hydroxyproline quantification, OD560", "setting": "[2]; raw OD560, individual replicates", "value": "0.849 and 1.1137 and 0.6903 and 1.4165"},
      {"measurement": "inhibition against 15 different proteases", "setting": "15 different proteases", "value": "essentially no inhibition"},
      {"measurement": "% activity relative to DMSO-only controls, Mean", "setting": "[3]; MMP-1", "value": 87, "unit": "%"},
      {"measurement": "% activity relative to DMSO-only controls, single runs", "setting": "[3]; MMP-1", "value": "105.8321% and 102.1980% and 83.6377% and 95.1040% and 96.8615% and 66.9344% and 67.7846% and 75.7623%"},
      {"measurement": "% activity relative to DMSO-only controls, Mean", "setting": "[3]; MMP-2", "value": 101, "unit": "%"},
      {"measurement": "% activity relative to DMSO-only controls, single runs", "setting": "[3]; MMP-2", "value": "134.1641% and 93.5356% and 119.9423% and 88.3713% and 112.6968% and 77.2842% and 100.8622% and 77.2868%"},
      {"measurement": "% activity relative to DMSO-only controls, Mean", "setting": "[3]; MMP-3", "value": 93, "unit": "%"},
      {"measurement": "% activity relative to DMSO-only controls, single runs", "setting": "[3]; MMP-3", "value": "94.6432% and 93.2955% and 89.9170% and 91.8916% and 91.6457% and 97.0044% and 92.2721% and 90.5895%"},
      {"measurement": "% activity relative to DMSO-only controls, Mean", "setting": "[3]; MMP-8", "value": 114, "unit": "%"},
      {"measurement": "% activity relative to DMSO-only controls, single runs", "setting": "[3]; MMP-8", "value": "99.7304% and 123.9354% and 116.1961% and 104.6766% and 117.7573% and 98.6189% and 113.4567% and 134.2719%"},
      {"measurement": "% activity relative to DMSO-only controls, Mean", "setting": "[3]; MMP-9", "value": 96, "unit": "%"},
      {"measurement": "% activity relative to DMSO-only controls, single runs", "setting": "[3]; MMP-9", "value": "99.3059% and 91.4690% and 98.9883% and 93.1451% and 94.2109% and 106.2066% and 100.0306% and 85.1586%"},
      {"measurement": "% activity relative to DMSO-only controls, Mean", "setting": "[3]; MMP-12", "value": 89, "unit": "%"},
      {"measurement": "% activity relative to DMSO-only controls, single runs", "setting": "[3]; MMP-12", "value": "81.7387% and 84.5842% and 96.0954% and 81.6283% and 94.7460% and 96.1245% and 93.1866% and 82.8317%"},
      {"measurement": "% activity relative to DMSO-only controls, Mean", "setting": "[3]; MMP-13", "value": 97, "unit": "%"},
      {"measurement": "% activity relative to DMSO-only controls, single runs", "setting": "[3]; MMP-13", "value": "85.9593% and 124.8564% and 91.0861% and 131.0115% and 78.1511% and 84.2743% and 87.8510% and 91.4553%"},
      {"measurement": "% activity relative to DMSO-only controls, Mean", "setting": "[3]; MMP-14", "value": 117, "unit": "%"},
      {"measurement": "% activity relative to DMSO-only controls, single runs", "setting": "[3]; MMP-14", "value": "110.7407% and 115.7751% and 123.1998% and 129.5171% and 110.1580% and 106.8971% and 114.7013% and 125.4828%"},
      {"measurement": "% activity relative to DMSO-only controls, Mean", "setting": "[3]; MMP-19", "value": 92, "unit": "%"},
      {"measurement": "% activity relative to DMSO-only controls, single runs", "setting": "[3]; MMP-19", "value": "98.6000% and 87.1925% and 92.0753% and 96.2890% and 86.4215% and 92.6495% and 89.4846% and 96.8071%"}
    ]}
  ]
}
